From patent publication US10183908B2, “Compositions for the treatment of kidney and/or liver disease” (VECTUS BIOSYSTEMS LIMITED, priority 2015, dated 2019)

Columns and labels:
[1] = system: SHR; assay: Blood pressure in SHR by tail cuff plethysmography; type: in vivo, rat; conditions: SHR on 2.2% salt diet; 500 pmol/kg/min in drinking solution; 4 weeks; systolic, FIG. 11
Source text: Fourteen week old SHR (on a 2.2% salt diet; Glen Forrest Stockfeeders) were randomly assigned to zero time control (14 week old rats), test compound treatment drinking solution (500 pmol/kg/min in deionised distilled water) or control drinking solution (5% ethanol in deionised distilled water). The rats assigned to zero time control group (14 week old rats) were anaesthetised and had their kidneys and liver harvested while rats assigned to control and test compound treatment were weighed twice weekly and had their drinking solution intake monitored to allow adjustment of the test compound concentration in the drinking solution to maintain a constant dose over the 4-week study period. Blood pressure was measured twice weekly by tail cuff plethysmography (PowerLab, ADInstruments, Castle Hill, NSW, Australia). After 4 weeks rats were anaesthetised (18 week old rats), and their kidneys and liver harvested.

[2] = system: SHR; assay: Hepatic fibrosis in SHR (Masson's trichrome); type: in vivo, rat; conditions: for Fibrosis in the liver compared to 18 week controls: SHR, 500 pmol/kg/min, 4 weeks, FIG. 13, *p<0.05, **p<0.025, ***p<0.01; for Tissue architecture of portal tracts in Masson's tri-chrome stained liver sections: SHR treated rats vs control, FIG. 14
Source text: (§1) Fourteen week old SHR (on a 2.2% salt diet; Glen Forrest Stockfeeders) were randomly assigned to zero time control (14 week old rats), test compound treatment drinking solution (500 pmol/kg/min in deionised distilled water) or control drinking solution (5% ethanol in deionised distilled water). The rats assigned to zero time control group (14 week old rats) were anaesthetised and had their kidneys and liver harvested while rats assigned to control and test compound treatment were weighed twice weekly and had their drinking solution intake monitored to allow adjustment of the test compound concentration in the drinking solution to maintain a constant dose over the 4-week study period. Blood pressure was measured twice weekly by tail cuff plethysmography (PowerLab, ADInstruments, Castle Hill, NSW, Australia). After 4 weeks rats were anaesthetised (18 week old rats), and their kidneys and liver harvested. To quantitate tissue fibrosis and/or fat content, tissue slices ≤3 mm thick were fixed in 10% buffered formalin for 24 hours, processed and embedded in paraffin. Three micron transverse sections were stained using Masson's trichrome stain. A minimum of 20 random fields at magnification ×20 from transverse sections (5 at each of 2 levels) were digitized and the degree of fibrosis and fat content determined as a percent of field area of each digitized image using Image-Pro Plus V.7 (Media Cybernetics, Bethesda, Md., USA) then averaged to determine the level of fibrosis and/or fat content for each rat.

[3] = system: Rat (NRK-52E) renal proximal tubule cells; assay: Rescue of renal proximal tubule cells from cisplatin cytotoxicity (WST-8/CCK-8); type: cell-based; conditions: test compound 30 μM; cisplatin 5 μg/ml; 24 or 48 hours; FIG. 10
Procedure: Rat (NRK-52E) renal proximal tubule cells grown in DMEM+10% FBS+1% NEAA+2 mM glutamine were placed in 96 well plates at 10,000 cells/well and incubated at 37° C. with 5% CO2 overnight. Test compounds at a concentration of 30 μM were incubated with human or rat renal proximal tubule cells for 2 hours at 37° C. and 5% CO2. Cis-diamminedichloroplatinum[…] (cisplatin) was then added at […] and each cell population was then incubated for 24 or 48 hours at 37° C. with 5% CO2. Test compounds were maintained at their original concentrations. To assay the cytotoxic effects of cisplatin on the rat renal proximal tubule cells a highly water-soluble tetrazolium salt, WST-8, which is reduced by dehydrogenases in cells to produce formazan, a water-soluble, yellow-coloured indicator dye was used following the manufacturer's instructions (specifically the Cell Count Kit-8 (CCK-8) assay from Sigma). Plate absorbance of the WST-8 (CCK-8) reagent was then measured at 450 nm using a Thermo Scientific Multiskan EX plate reader.

[4] = system: SHR; assay: Hepatic fat content in SHR; type: in vivo, rat; conditions: SHR on 2.2% salt diet; 500 pmol/kg/min; 4 weeks; FIG. 15, *p<0.05, **p<0.025, ***p<0.01
Source text: as §1

[5] = system: SHR; assay: Kidney fibrosis in SHR (Masson's trichrome); type: in vivo, rat; conditions: SHR on 2.2% salt diet, 500 pmol/kg/min, 4 weeks; for Fibrosis in the kidney compared to 18 week controls: FIG. 12, *p<0.05
Source text: as §1

[6] = system: bovine aortic endothelial cells; assay: xCELLigence cell impedance in bovine aortic endothelial cells; type: cell-based; conditions: test compounds at 62.5, 125 or 250 μM; FIG. 9; negative response = indirect vasodilator
Procedure: (§2) Briefly, 50 μl of cell culture medium (DMEM low glucose supplemented with 10% fetal bovine serum at 37° C.) was added to each well of an E-Plate 96 (Roche), and the background impedance in each well was measured. 50 μl of A-10 cell suspension (10,000 cells/well) was then added to the appropriate wells of the E-Plate 96. Cell index was monitored for each well of the E-Plate 96 in RTCA SP Station within the cell culture incubator. After overnight incubation for 16-20 hours at 5% CO2 and 95% humidity, 100 μl of test compound solution (test compounds were prepared in DMSO and diluted with cell culture medium to a final DMSO concentration of 0.25%) was added to the appropriate wells of the E-Plate 96 and cell index values were measured immediately following compound treatment every 20 seconds for 3 hours. Cell index value is baseline-corrected by subtracting the cell index of vehicle-treated cells and normalized by dividing by the cell index at the time point immediately before compound addition. Baseline normalized cell index as a function of time is plotted using Roche RTCA software.
The xCELLigence SP system was also used to measure changes in cellular impedance following the treatment of bovine aortic endothelial cells (European Collection of Cell Cultures) with test compound. The method employed is the same for the A10 embryonic vascular smooth muscle cells described above but with the cell culture medium supplemented with 15% fetal bovine serum instead of 10%.
Compounds may interact with vascular endothelial cells causing the release of substances such as nitric oxide and endothelium-derived hyperpolarising factor, which in turn act on the vascular smooth muscle cells causing vasodilatation and lowering blood pressure. Such compounds are termed indirect vasodilators.

[7] = system: A10 embryonic vascular smooth muscle cells; assay: xCELLigence cell impedance in A10 vascular smooth muscle cells; type: cell-based; conditions: test compounds at 62.5, 125 or 250 μM; FIG. 8; negative response = direct vasodilator
Source text: The xCELLigence SP system (Roche) was used to measure changes in cellular impedance (cell index) following the treatment of A10 embryonic vascular smooth muscle cells (ATCC, CRL-1476) with test compound. In this in vitro cell based experimental system a negative impedance profile correlates with blood pressure reduction in rats—a decrease in impedance is associated with vasodilatation and an increase in impedance is associated with vasoconstriction (Stallaert W, Dorn J F, van der Westhuizen E, Audet M & Bouvier M. Impedance responses reveal β-adrenergic signaling […] and allow classification of ligands with distinct signalling profiles PLoS ONE 2012; 7(1):e29420, doi:10.1371/journal.pone.0029420).
as §2
Compounds may achieve reductions in blood pressure by interaction with vascular smooth muscle cells causing these cells to relax resulting in vasodilatation and a reduction in blood pressure. These are termed direct vasodilators.

Structure (SMILES)	Blood pressure [1]	Fibrosis in the liver compared to 18 week controls [2]	Cisplatin induced cell death in renal proximal tubular cells [3]	Fat in the liver compared to 18 week controls [4]	Fibrosis in the kidney compared to 18 week controls [5]	impedance response for bovine aortic endothelial cells [6]	Tissue architecture of portal tracts in Masson's tri-chrome stained liver sections [2]	Fibrosis in the kidney compared to 14 week controls ([5]; FIG. 12, #p<0.05, reversal of established fibrosis)	impedance response for A10 vascular smooth muscle cells [7]
NC(=O)CCc1cc(-c2cn[nH]c2)ccc1-c1cccc(O)c1 [Compound P22, 3-(3′-Hydroxy-4-(1H-pyrazol-4-yl)-[1,1′-biphenyl]-2-yl)propanamide]	reduced	decreased	decreased	reduced	decreased	Negative impedance responses	–	–	–
NC(=O)CCc1cc(-c2cncnc2)ccc1-c1cccc(O)c1 [Compound P26, 3-(3′-Hydroxy-4-(pyrimidin-5-yl)-[1,1-biphenyl]-2-yl)propanamide]	–	decreased	decreased	reduced	decreased	Negative impedance responses	normal tissue architecture has been restored	–	–
Cc1nc(C)c(-c2ccc(-c3cccc(O)c3)c(CCC(N)=O)c2)s1 [Compound P40, 3-(4-(2,4-Dimethylthiazol-5-yl)-3′-hydroxy-[1,1′biphenyl]-2-yl)propanamide]	reduced	decreased	decreased	reduced	decreased	–	–	–	–
NC(=O)CCc1cc(-c2cccnc2)ccc1-c1cccc(O)c1 [Compound P5, 3-(3′-Hydroxy-4-(pyridin-3-yl)-[1,1′-biphenyl]-2-yl)propanamide]	reduced	–	decreased	–	decreased	–	–	decreased	Negative impedance responses
NC(=O)CCc1cc(-c2ccsc2)ccc1-c1cccc(O)c1 [Compound P8, 3-(3′-Hydroxy-4-(thiophen-3-yl)-[1,1′biphenyl]-2-yl)propanamide]	reduced	decreased	decreased	–	decreased	Negative impedance responses	normal tissue architecture has been restored	–	Negative impedance responses
